Assay results: ChEMBL document CHEMBL4414634, “Alternatone A, an Unusual Perylenequinone-Related Compound from a Soft-Coral-Derived Strain of the Fungus Alternaria alternata” (J Nat Prod, 2019)
pIC50: −log10 of the molar value. The source made the active and inactive calls. The rule behind the calls is not given here.

Assays:
Assay type in all cases: functional, cell-based
HeLa = experiment: Antiproliferative activity against human HeLa cells assessed as reduction in cell viability by MTT assay
A549 = experiment: Antiproliferative activity against human A549 cells assessed as reduction in cell viability by SRB assay
HCT-116 = experiment: Antiproliferative activity against human HCT116 cells assessed as reduction in cell viability by SRB assay

Structure (SMILES) | Activity (HeLa) | Activity (A549) | Activity (HCT-116) | pIC50 (HeLa) | pIC50 (A549) | pIC50 (HCT-116)
O=C1C[C@@H](O)[C@@H]2c3ccc(O)c4c3[C@@H](c3ccc(O)c1c32)[C@H](O)CC4=O | inactive | inactive | inactive |  |  | 
O=C1C[C@H](O)[C@@H]2c3c(ccc(O)c31)-c1ccc(O)c3c1[C@@]2(O)C=CC3=O |  |  |  | 5.51 | 5.59 | 5.62
O=C1C[C@@H]2[C@@H]3C(=O)c4c(O)cccc4[C@@H]([C@@H]3O)[C@@H]2c2cccc(O)c21 | inactive | inactive | inactive |  |  | 
O=C1C[C@H](O)[C@@H]2c3c(ccc(O)c31)-c1ccc(O)c3c1[C@@]2(O)CCC3=O | inactive | inactive | inactive |  |  | 
